Measurements reported in US12649733B2, “3,6-diamino-pyridazin-3-yl derivatives, pharmaceutical compositions containing them and their uses as pro-apoptotic agents” (LES LABORATOIRES SERVIER, priority 2019, dated 2026).

Legend:
[1] = tested on: H146 cells; test: H146 cell viability, MTT assay; type: cell-based; conditions: Homo sapiens, NCI-H146, 48 h, 48 h exposure
Method: (§1) MTT colorimetric assay is based on the mitochondrial reduction of tetrazolium salt by living cells. The viable cell number is proportional to the production of formazan salts, which can be read spectrophotometrically at 540 nm.
(§2) MOLT-4 and H146 cells were purchased from ATCC and cultivated in RPMI 1640 supplemented with 10% heat inactivated fetal bovine serum, penicillin (100 IU/ml), streptomycin (100 μg/ml) and L-glutamine (2 mM). Cells were cultured at 37° C. in a humidified atmosphere containing 5% CO2. Cells were seeded in 96 microwell plates (150 μL per well) and exposed to the compounds for 48 h (3.16 fold serially diluted; 9 concentrations each, triplicates). At the end of incubation time, 15 μL of MTT solution (5 mg/ml) were added per well and the cells were incubated for another 4 h. Then, 100 μL of 10% Sodium Dodecyl Sulfate (SDS)/HCl 10 mM were added per well and the plate was incubated overnight, before measurement of optical density at 540 nm. IC50s were calculated using standard four-parametric curve fitting.

[2] = tested on: MOLT-4 cells; test: MOLT-4 cell viability, MTT assay; type: cell-based; conditions: Homo sapiens, MOLT-4, 48 h, 48 h exposure
Method: as §1, §2

[3] = molecular target: BCLXL (Homo sapiens, UniProt Q07817, V10N/V9A); test: Fluorescence polarisation assay (PUMA-based probe displacement); type: binding; note: 20 nM protein, 10 nM fluorescent probe
Method: Fluorescence polarization measures the rotation of a fluorescing species in solution, the larger the molecule the more polarized the fluorescence emission.
[[…]] (GST UniProtKB® primary accession number P08515 and BCLXL UniProtKB® primary accession number Q07817-1),
resulting in an increase in anisotropy. If a compound is added which competitively binds to the same site as the probe, thereby releasing it, anisotropy decreases due to the increased amount of free probe.
An 11-point serial dilution of each compound was prepared in DMSO, the final buffer conditions were 10 mM 4-(2-hydroxyethyl)-1-piperazineethanesulfonic acid [HEPES], 150 mM NaCl, 0.05% Tween 20, pH 7.4 and 5% DMSO. The final protein concentration in the assay was 20 nM with the fluorescent probe present at 10 nM. The experiments were incubated for 2 hours at 23° C. before fluorescence polarization was measured on a Biotek SynergyNeo plate reader (Excitation 485 nm, emission 525 nm, parallel and perpendicular reads). […] The KI values were determined from the IC50 values according to Cer et al, Nucleic Acids Res, 2009, Jul. 1: 37(WebServer issue): W441-W445.

BCLXL, sequence (Q07817 with tags, fused parts or gaps V9A/V10N): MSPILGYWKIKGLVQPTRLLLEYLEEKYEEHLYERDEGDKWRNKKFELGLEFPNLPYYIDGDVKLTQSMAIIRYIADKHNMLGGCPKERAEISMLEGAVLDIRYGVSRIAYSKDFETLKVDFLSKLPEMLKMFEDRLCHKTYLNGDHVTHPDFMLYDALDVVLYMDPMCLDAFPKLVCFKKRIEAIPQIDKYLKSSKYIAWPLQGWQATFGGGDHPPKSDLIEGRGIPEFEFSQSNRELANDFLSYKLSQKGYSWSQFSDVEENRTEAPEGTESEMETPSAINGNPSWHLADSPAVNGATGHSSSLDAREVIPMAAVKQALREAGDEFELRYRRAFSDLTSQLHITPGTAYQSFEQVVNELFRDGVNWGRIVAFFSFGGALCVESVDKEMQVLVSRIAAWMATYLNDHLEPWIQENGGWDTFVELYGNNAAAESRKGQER

Compound | IC50 [1] [nM] | IC50 [2] [nM] | Ki [3] [nM]
CNCC#Cc1ccc(OCCCc2sc(N(CCC[N+](C)(C)C)c3cc(C)c(Nc4nc5ccccc5s4)nn3)nc2C(=O)[O-])c(F)c1 [Example 202, 2-[[6-(1,3-Benzothiazol-2-ylamino)-5-methyl-pyridazin-3-yl]-[3-(trimethylammonio)propyl]amino]-5-[3-[2-fluoro-4-[3-(methylamino)prop-1-ynyl]phenoxy]propyl]thiazole-4-carboxylate] | 74.8 | 611 | –
Cc1c(Nc2nc(C(=O)O)cs2)nnc(Nc2nc3ccccc3s2)c1C [Example 1] | 15000 | – | –
CNCC#Cc1ccc(OCCCc2sc(N(CCCC(O)CN(C)CCP(=O)(O)O)c3cc(C)c(Nc4nc5ccccc5s4)nn3)nc2C(=O)O)c(F)c1 (stereo not shown) [Example 196, 2-[[6-(1,3-Benzothiazol-2-ylamino)-5-methyl-pyridazin-3-yl]-[4-hydroxy-5-[methyl(2-phosphonoethyl)amino]pentyl]amino]-5-[3-[2-fluoro-4-[3-(methylamino)prop-1-ynyl]phenoxy]propyl]thiazole-4-carboxylic acid] | 1620 | 879 | –
CNCC#Cc1ccc(OCCCc2sc(N(CCCCN(C)C)c3cc(C)c(Nc4nc5ccccc5s4)nn3)nc2C(=O)O)c(F)c1 [Example 210, 2-[[6-(1,3-Benzothiazol-2-ylamino)-5-methyl-pyridazin-3-yl]-[4-(dimethylamino)butyl]amino]-5-[3-[2-fluoro-4-[3-(methylamino)prop-1-ynyl]phenoxy]propyl]thiazole-4-carboxylic acid] | 21.4 | 20.3 | –
O=C(O)c1csc(Nc2ccc(Nc3nc4ccccc4s3)nn2)n1 [Example 4, 2-({6-[(1,3-Benzothiazol-2-yl)amino]pyridazin-3-yl}amino)-1,3-thiazole-4-carboxylic acid] | – | – | 910
Cc1cc(Nc2nc(C(=O)O)cs2)nnc1Nc1nc2ccccc2s1 [Example 7, 2-({6-[(1,3-Benzothiazol-2-yl)amino]-5-methylpyridazin-3-yl}amino)-1,3-thiazole-4-carboxylic acid] | > 15000 | – | –
Cc1cc(N(CC(CO)N2CCOCC2)c2nc(C(=O)O)cs2)nnc1Nc1nc2ccccc2s1 (stereo not shown) [Example 107, 2-[[6-(1,3-Benzothiazol-2-ylamino)-5-methyl-pyridazin-3-yl]-(3-hydroxy-2-morpholino-propyl)amino]thiazole-4-carboxylic acid] | – | – | 130
CNCC#Cc1ccc(OCCCc2sc(N(CCCCC[N+](C)(C)C)c3cc(C)c(Nc4nc5ccccc5s4)nn3)nc2C(=O)O)c(F)c1 [Example 219, 2-[[6-(1,3-Benzothiazol-2-ylamino)-5-methyl-pyridazin-3-yl]-[5-(trimethylammonio)pentyl]amino]-5-[3-[2-fluoro-4-[3-(methylamino)prop-1-ynyl]phenoxy]propyl]thiazole-4-carboxylate] | 129 | 1270 | –
Cc1cc(Nc2nc3ccccc3s2)nnc1Nc1nc(C(=O)O)cs1 [Example 11, 2-({6-[(1,3-Benzothiazol-2-yl)amino]-4-methylpyridazin-3-yl}amino)-1,3-thiazole-4-carboxylic acid] | – | – | 600
Cc1c(Nc2nc(C(=O)O)cs2)nnc(Nc2nc3c(F)cccc3s2)c1C [Example 55, 2-[[6-[(4-Fluoro-1,3-benzothiazol-2-yl)amino]-4,5-dimethyl-pyridazin-3-yl]amino]thiazole-4-carboxylic acid] | – | – | 82
Cc1c(Nc2nc(C(=O)O)cs2)nnc(Nc2nc3ccccc3s2)c1C1CC1 [Example 20, 2-({6-[(1,3-Benzothiazol-2-yl)amino]-5-cyclopropyl-4-methylpyridazin-3-yl}amino)-1,3-thiazole-4-carboxylic acid] | 3350 | 7210 | –
Cc1c(Nc2nc3ccccc3s2)nnc(Nc2nc(C(=O)O)cs2)c1CCCN1CCN(C)CC1 [Example 51, 2-({6-[(1,3-Benzothiazol-2-yl)amino]-5-methyl-4-[3-(4-methylpiperazin-1-yl)propyl]pyridazin-3-yl}amino)-1,3-thiazole-4-carboxylic acid] | > 15000 | > 15000 | –
O=C(O)c1csc(Nc2nnc(Nc3nc4ccccc4s3)c3c2CCCC3)n1 [Example 17, 2-[[4-(1,3-Benzothiazol-2-ylamino)-5,6,7,8-tetrahydrophthalazin-1-yl]amino]thiazole-4-carboxylic acid] | 13400 | 7880 | –
COCc1c(Nc2nc(C(=O)O)cs2)nnc(Nc2nc3ccccc3s2)c1C [Example 29, 2-({6-[(1,3-Benzothiazol-2-yl)amino]-4-(methoxymethyl)-5-methylpyridazin-3-yl}amino)-1,3-thiazole-4-carboxylic acid] | > 15000 | > 15000 | –

Other lines, results leading:

IC50 [1] [nM] | IC50 [2] [nM] | Ki [3] [nM] | Compound
– | – | 19 | COCCCC1(Cn2ncc(-c3sc(N(C)c4cc(C)c(Nc5nc6ccccc6s5)nn4)nc3C(=O)O)c2C)CCCCCCC1 [Example 43, 2-({6-[(1,3-Benzothiazol-2-yl)amino]-5-methylpyridazin-3-yl}(methyl)amino)-5-(1-{[1-(3-methoxypropyl)cyclooctyl]methyl}-5-methyl-1H-pyrazol-4-yl)-1,3-thiazole-4-carboxylic acid]
– | – | 180 | Cc1cc(N(C)c2nc(C(=O)O)c(C3CN(C(=O)NCc4ccccc4)C3)s2)nnc1Nc1nc2ccccc2s1 [Example 159, 2-({6-[(1,3-Benzothiazol-2-yl)amino]-5-methylpyridazin-3-yl}(methyl)amino)-5-[1-(benzylcarbamoyl)azetidin-3-yl]-1,3-thiazole-4-carboxylic acid]
– | – | 160 | Cc1cc(N(C)c2nc(C(=O)O)c(N3CC(O)C3)s2)nnc1Nc1nc2ccccc2s1 [Example 72, 2-({6-[(1,3-Benzothiazol-2-yl)amino]-5-methylpyridazin-3-yl}(methyl)amino)-5-(3-hydroxyazetidin-1-yl)-1,3-thiazole-4-carboxylic acid]
> 15000 | > 15000 | – | Cc1c(Nc2nc3ccccc3s2)nnc(N(C)c2nc(C(=O)O)cs2)c1C [Example 26, 2-({6-[(1,3-Benzothiazol-2-yl)amino]-4,5-dimethylpyridazin-3-yl}(methyl)amino)-1,3-thiazole-4-carboxylic acid]
– | – | 220 | CCNC(=O)N1CC(c2sc(N(C)c3cc(C)c(Nc4nc5ccccc5s4)nn3)nc2C(=O)O)C1 [Example 160, 2-({6-[(1,3-Benzothiazol-2-yl)amino]-5-methylpyridazin-3-yl}(methyl)amino)-5-[1-(ethylcarbamoyl)azetidin-3-yl]-1,3-thiazole-4-carboxylic acid]
– | – | 1300 | Cc1cc(N(C)c2nc(C(=O)O)c(C3CN(S(C)(=O)=O)C3)s2)nnc1Nc1nc2ccccc2s1 [Example 149, 2-({6-[(1,3-Benzothiazol-2-yl)amino]-5-methylpyridazin-3-yl}(methyl)amino)-5-(1-methanesulfonylazetidin-3-yl)-1,3-thiazole-4-carboxylic acid]
– | – | 43 | Cc1cc(N(CCCC(=O)O)c2nc(C(=O)O)cs2)nnc1Nc1nc2ccccc2s1 [Example 158, 2-({6-[(1,3-Benzothiazol-2-yl)amino]-5-methylpyridazin-3-yl}(3-carboxypropyl)amino)-1,3-thiazole-4-carboxylic acid]
9580 | – | – | Cc1cc(N(C)c2nc(C(=O)O)cs2)nnc1Nc1nc2ccccc2s1 [Example 21, 2-({6-[(1,3-Benzothiazol-2-yl)amino]-5-methylpyridazin-3-yl}(methyl)amino)-1,3-thiazole-4-carboxylic acid]
